Test results from ChEMBL document CHEMBL1201862, “PubChem BioAssay data set” (2004).
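Five compound concentrations were applied to cells in 96-well plates for 48 hours; endpoints were derived by simple linear interpolation of the resulting dose-response curve. GI50 = concentration required for 50% inhibition of growth.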 The source made the active and inactive calls. No stated cut-off is given here; in the data, active = GI50 up to about 1.1 µM and inactive = higher.

Legend:
Test in all cases: NCI-60 cell line screen, 48 h
NCI-H460 = tested on: NCI-H460
ACHN = tested on: ACHN
OVCAR-5 = tested on: OVCAR-5
786-0 = tested on: 786-0
SK-MEL-2 = tested on: SK-MEL-2
LOX IMVI = tested on: LOX IMVI
K562 = tested on: K562
HT-29 = tested on: HT-29
SR = tested on: SR
NCI-H23 = tested on: NCI-H23
UACC-257 = tested on: UACC-257
TK-10 = tested on: TK-10
SNB-75 = tested on: SNB-75
A498 = tested on: A498
SF-295 = tested on: SF-295

Measured: GI50

COc1ccc(C2=Nc3ccccc3N=C(SC)C2)cc1
inactive: NCI-H460 24.5 µM | ACHN 69.8 µM | OVCAR-5 44 µM | 786-0 38.6 µM | SK-MEL-2 21.8 µM | LOX IMVI 16.9 µM | K562 20.8 µM | HT-29 38.5 µM | SR 25.3 µM | NCI-H23 32.8 µM | UACC-257 22.1 µM | TK-10 40.7 µM | SNB-75 74 µM | A498 > 100 µM | SF-295 77.3 µM

C/C(CC(=O)Nc1ccc([N+](=O)[O-])cc1)=N\Nc1ccc([N+](=O)[O-])cc1[N+](=O)[O-]
inactive: NCI-H460 44.4 µM | ACHN 10.8 µM | OVCAR-5 > 100 µM | 786-0 > 100 µM | SK-MEL-2 > 100 µM | LOX IMVI 10.7 µM | K562 20.2 µM | HT-29 > 100 µM | NCI-H23 > 100 µM | UACC-257 47.1 µM | TK-10 > 100 µM | SNB-75 > 100 µM | A498 59.8 µM | SF-295 47.5 µM

C[C@]12CCC(=O)C(O)=C1CC[C@@H]1C2CC[C@]2(C)Nc3c(cnn3-c3ccccc3)CC12 (some centres undefined)
inactive: NCI-H460 48.8 µM | ACHN > 100 µM | OVCAR-5 > 100 µM | 786-0 > 100 µM | SK-MEL-2 > 100 µM | K562 40.6 µM | HT-29 39.4 µM | NCI-H23 54.5 µM | UACC-257 39 µM | TK-10 > 100 µM | SNB-75 > 100 µM | A498 > 100 µM | SF-295 52.7 µM

O=c1[nH]c(=O)n(C2OC(CO)C(O)C2O)cc1OCc1ccccc1 (centres undefined)
inactive: NCI-H460 > 66.7 µM | ACHN > 100 µM | OVCAR-5 > 100 µM | 786-0 > 100 µM | SK-MEL-2 > 100 µM | LOX IMVI > 31.6 µM | K562 > 73.3 µM | HT-29 > 100 µM | SR > 50.1 µM | NCI-H23 > 100 µM | UACC-257 > 100 µM | TK-10 > 100 µM | SNB-75 > 100 µM | A498 > 100 µM | SF-295 > 100 µM

c1ccc2c(c1)CCCc1cc3ccccc3nc1-2
inactive: NCI-H460 > 100 µM | ACHN > 100 µM | OVCAR-5 > 100 µM | 786-0 > 100 µM | SK-MEL-2 > 100 µM | K562 > 100 µM | HT-29 46.3 µM | NCI-H23 > 100 µM | UACC-257 54.8 µM | TK-10 > 100 µM | SNB-75 75.3 µM | A498 79.4 µM | SF-295 > 100 µM

Brc1cccc(/C=N/C23CC4CC(CC(C4)C2)C3)c1
inactive: NCI-H460 > 100 µM | ACHN > 100 µM | OVCAR-5 > 100 µM | 786-0 > 100 µM | SK-MEL-2 > 100 µM | LOX IMVI > 100 µM | K562 > 100 µM | HT-29 > 100 µM | NCI-H23 > 100 µM | UACC-257 > 100 µM | TK-10 > 100 µM | SNB-75 > 100 µM | A498 > 100 µM | SF-295 > 100 µM

CC(=O)C1C(c2ccccc2)C2(C)OC(=O)C(C#N)C12C (centres undefined)
inactive: NCI-H460 > 100 µM | ACHN > 100 µM | OVCAR-5 > 100 µM | 786-0 > 100 µM | SK-MEL-2 > 100 µM | LOX IMVI > 100 µM | K562 > 100 µM | NCI-H23 > 100 µM | TK-10 > 100 µM | SNB-75 > 100 µM | SF-295 > 100 µM

O=C(NCCO)c1ccc([N+](=O)[O-])cc1
inactive: NCI-H460 > 100 µM | 786-0 > 100 µM | SK-MEL-2 > 100 µM | LOX IMVI > 100 µM | K562 > 100 µM | HT-29 > 100 µM | NCI-H23 > 100 µM | UACC-257 > 100 µM | TK-10 > 100 µM | SNB-75 > 100 µM | A498 > 100 µM | SF-295 > 100 µM

O=CC1CCC=CC1NC(=O)OCc1ccccc1 (centres undefined)
inactive: NCI-H460 59.3 µM | ACHN > 100 µM | OVCAR-5 > 100 µM | 786-0 33.8 µM | SK-MEL-2 38.5 µM | LOX IMVI 48.4 µM | K562 4.68 µM | HT-29 51.4 µM | SR 30.7 µM | NCI-H23 > 100 µM | UACC-257 > 100 µM | TK-10 53.3 µM | SNB-75 29.2 µM | SF-295 30.5 µM

O=C1Nc2ccccc2N/C1=C\C(=O)c1ccccc1O
inactive: NCI-H460 > 100 µM | ACHN > 100 µM | OVCAR-5 > 100 µM | 786-0 > 100 µM | SK-MEL-2 > 100 µM | LOX IMVI > 100 µM | K562 > 100 µM | HT-29 > 100 µM | SR > 100 µM | NCI-H23 > 100 µM | UACC-257 > 100 µM | TK-10 > 100 µM | SNB-75 > 100 µM | A498 > 100 µM | SF-295 > 100 µM

Cn1cnc2nc(Cl)nc(NC(C)(C)C(C)(C)O)c21
inactive: NCI-H460 > 100 µM | ACHN > 100 µM | OVCAR-5 > 100 µM | 786-0 > 100 µM | SK-MEL-2 > 100 µM | K562 > 100 µM | HT-29 > 100 µM | SR > 100 µM | NCI-H23 > 100 µM | UACC-257 > 100 µM | TK-10 > 100 µM | SNB-75 > 100 µM | A498 > 100 µM | SF-295 > 100 µM

CC(=O)Nc1ccc(S(=O)(=O)N/N=C/CN2C(=O)c3ccccc3C2=O)cc1
inactive: NCI-H460 > 100 µM | ACHN > 100 µM | 786-0 > 100 µM | SK-MEL-2 > 100 µM | LOX IMVI > 100 µM | K562 > 100 µM | HT-29 > 100 µM | SR > 100 µM | NCI-H23 > 100 µM | UACC-257 > 100 µM | TK-10 > 100 µM | SNB-75 > 100 µM | A498 > 100 µM | SF-295 > 100 µM

Cc1cc(N(CCC#N)CCC#N)ccc1/C=C(\NC(=O)/C=C/c1ccccc1)NC(=O)Nc1ccccc1C
inactive: NCI-H460 76.2 µM | ACHN 55.3 µM | OVCAR-5 > 100 µM | 786-0 26.8 µM | SK-MEL-2 38.7 µM | LOX IMVI 63.4 µM | K562 > 100 µM | HT-29 > 100 µM | NCI-H23 58.7 µM | UACC-257 > 100 µM | A498 65.3 µM | SF-295 25.4 µM

CC(=O)SC(SC(C)=O)SC(C)=O
inactive: NCI-H460 > 100 µM | ACHN > 100 µM | OVCAR-5 > 100 µM | 786-0 > 100 µM | SK-MEL-2 > 100 µM | LOX IMVI 58.5 µM | K562 54.5 µM | HT-29 24.7 µM | NCI-H23 > 100 µM | UACC-257 55 µM | TK-10 > 100 µM | SNB-75 60.3 µM | A498 > 100 µM

CCC(=C(c1ccc(OCc2ccccc2)cc1)c1ccc(OCc2ccccc2)cc1)c1ccc(OC)cc1
inactive: NCI-H460 > 100 µM | ACHN > 100 µM | OVCAR-5 > 100 µM | 786-0 > 100 µM | SK-MEL-2 > 100 µM | LOX IMVI > 100 µM | K562 > 100 µM | HT-29 > 100 µM | SR > 100 µM | NCI-H23 > 100 µM | TK-10 > 100 µM | SNB-75 > 100 µM | SF-295 > 100 µM

Cc1ccc(-c2cc(=O)c3cc(C)c(C)c(C(=O)O)c3o2)cc1N
inactive: NCI-H460 > 100 µM | ACHN > 100 µM | OVCAR-5 > 100 µM | 786-0 > 100 µM | SK-MEL-2 > 100 µM | LOX IMVI > 100 µM | K562 > 100 µM | HT-29 > 100 µM | NCI-H23 > 100 µM | UACC-257 > 100 µM | TK-10 > 100 µM | SNB-75 > 100 µM | SF-295 > 100 µM

CCOC(=O)C(C(=O)OCC)=C1C=C(c2ccccc2)c2ccccc21
inactive: NCI-H460 31.8 µM | ACHN 41 µM | OVCAR-5 38.6 µM | 786-0 28.5 µM | SK-MEL-2 > 100 µM | LOX IMVI 28.8 µM | K562 36.6 µM | HT-29 42.8 µM | NCI-H23 54.5 µM | UACC-257 73.1 µM | TK-10 79.1 µM | SNB-75 45.7 µM | A498 13.4 µM | SF-295 31.2 µM

CCN(CC)CCN1CCc2c([nH]c3ccccc23)C1c1cccnc1 (centres undefined)
inactive: NCI-H460 > 100 µM | ACHN > 100 µM | OVCAR-5 > 100 µM | 786-0 > 100 µM | LOX IMVI > 100 µM | K562 88.9 µM | HT-29 > 100 µM | SR > 100 µM | NCI-H23 > 100 µM | UACC-257 37.5 µM | TK-10 > 100 µM | SNB-75 91.4 µM | A498 > 100 µM | SF-295 > 100 µM

Cc1cc2c(=O)c3ccccc3[nH]c2c(C(=O)O)c1C
inactive: NCI-H460 > 100 µM | ACHN > 100 µM | 786-0 > 100 µM | SK-MEL-2 > 100 µM | K562 > 100 µM | HT-29 > 100 µM | SR > 100 µM | NCI-H23 > 100 µM | UACC-257 > 100 µM | SNB-75 31.6 µM | A498 > 100 µM | SF-295 > 100 µM

COc1ccc(O)cc1C(O)c1ccccc1 (centres undefined)
inactive: NCI-H460 > 100 µM | ACHN > 100 µM | OVCAR-5 > 100 µM | 786-0 > 100 µM | SK-MEL-2 > 100 µM | LOX IMVI > 100 µM | K562 > 100 µM | HT-29 > 100 µM | NCI-H23 > 100 µM | UACC-257 > 100 µM | TK-10 > 100 µM | SNB-75 > 100 µM | A498 > 100 µM | SF-295 > 100 µM
